From patent US20090042856A1, “PYRIDAZINONE DERIVATIVES USED FOR THE TREATMENT OF PAIN” (Astellas Pharma Inc, priority 2005, published 2009)
Counter-ions that a name gives are not always drawn.

tested on: TNF-α production in THP-1 cells; assay: Inhibition of TNF-α production in THP-1 cells; assay type: cell-based; settings: Homo sapiens; TNF-α levels from LPS (10 μg/mL) stimulated THP-1 cells, 100 nM test compound, 20 hours, vs 0.1% DMSO control
Description: THP-1 cells, a human monocytic cell line, were maintained in RPMI 1640 (Sigma R8758) supplemented with penicillin (50 U/ml), streptomycin (50 μg/ml) and 10% fetal bovine serum (Moregate BioTech.) at 37° C., 5% CO2 in a humidified incubator. Initial stock solutions of test compounds were made in DMSO. All cells, reagents and test compounds were diluted into culture media. THP-1 cells (1×10^5 cells/well final) and lipopolysaccharide (LPS; 10 μg/mL final; Sigma L-4005, from E. coli serotype 055:B5) were added to 96 well polypropylene culture plates (Sumilon, MS-8196F5; sterile) containing test compound or 0.1% DMSO vehicle. The cell mixture was incubated for 20 hours in a humidified incubator at 37° C., 5% CO2. The culture supernatants were harvested and TNF-α levels from LPS stimulated cells in the presence of 100 nM test compound was calculated compared with control cells stimulated in the presence of 0.1% DMSO.

Structure (SMILES) | inhibition at 0.1 µM
Cc1ccccc1-n1nc(-c2c(-c3ccc(F)cc3)nn3c2NCC(CN2CCN(C)CC2)C3)ccc1=O (stereo not shown) [Example 47, 6-(2-(4-Fluorophenyl)-6-[(4-methylpiperazin-1-yl)methyl]-4,5,6,7-tetrahydropyrazolo[1,5-a]pyrimidin-3-yl)-2-(2-methylphenyl)pyridazin-3(2H)-one dihydrochloride] | 95%
Cc1ccccc1-n1nc(-c2c(-c3ccc(F)cc3)nn3c2NCC(F)(F)C3)ccc1=O [Example 85, 6-[6,6-Difluoro-2-(4-fluorophenyl)-4,5,6,7-tetrahydropyrazolo[1,5-a]pyrimidin-3-yl]-2-(2-methylphenyl)pyridazin-3(2H)-one] | 88%
Cc1ccccc1-n1nc(-c2c(-c3ccc(F)cc3)nn3c2OCC3)ccc1=O [Example 125, 6-[6-(4-fluorophenyl)-2,3-dihydropyrazolo[5,1-b][1,3]oxazol-7-yl]-2-(2-methylphenyl)pyridazin-3(2H)-one] | 83%
Cc1ccccc1-n1nc(-c2c(-c3ccc(F)cc3)nn3c2N[C@H](CO)CC3)ccc1=O [Example 123, 6-[(5S)-2-(4-fluorophenyl)-5-(hydroxymethyl)-4,5,6,7-tetrahydropyrazolo[1,5-a]pyrimidin-3-yl]-2-(2-methylphenyl)pyridazin-3(2H)-one] | 94%
Cc1ccccc1-n1nc(-c2c(-c3ccc(F)cc3)nn3c2NC(CO)CC3)ccc1=O (stereo in doubt) [Example 124, 6-[(5S)-2-(4-Fluorophenyl)-5-(hydroxymethyl)-4,5,6,7-tetrahydropyrazolo[1,5-a]pyrimidin-3-yl]-2-(2-methylphenyl)pyridazin-3(2H)-one] | 94%
Cc1ccccc1-n1nc(-c2c(-c3ccccc3)nn3c2CN(C(C)C)CC3)ccc1=O [Example 130, 6-(5-isopropyl-2-phenyl-4,5,6,7-tetrahydropyrazolo[1,5-a]pyrazin-3-yl)-2-(2-methylphenyl)pyridazin-3(2H)-one] | 70%
Cc1ccccc1-n1nc(-c2c(-c3ccc(F)cc3F)nn3c2NCC(CN(C)C)C3)ccc1=O (stereo not shown) [Example 1, 6-{2-(2,4-difluorophenyl)-6-[(dimethylamino)methyl]-4,5,6,7-tetrahydropyrazolo[1,5-a]pyrimidin-3-yl}-2-(2-methylphenyl)-3(2H)-pyridazinone] | 88%
Cc1ccccc1N1N=C(c2c(-c3ccc(F)cc3F)nn3c2NCC(CN(C)C)C3)CCC1=O (stereo not shown) [Example 55, 6-{2-(2,4-difluorophenyl)-6-[(dimethylamino)methyl]-4,5,6,7-tetrahydropyrazolo[1,5-a]pyrimidin-3-yl}-2-(2-methylphenyl)-4,5-dihydropyridazin-3(2H)-one] | 98%
Cc1ccccc1-n1nc(-c2c(-c3ccc(F)cc3)nn3c2NCC(CO)(CO)C3)ccc1=O [Example 35, 6-[2-(4-Fluorophenyl)-6,6-bis(hydroxymethyl)-4,5,6,7-tetrahydropyrazolo[1,5-a]pyrimidin-3-yl]-2-(2-methylphenyl)pyridazin-3(2H)-one] | 90%
CC(=O)N1CCC2(CC1)CNc1c(-c3ccc(=O)n(-c4ccccc4C)n3)c(-c3ccc(F)cc3)nn1C2 [Example 107, 6-[1-acetyl-2′-(4-fluorophenyl)-4′,5′-dihydrospiro[piperidine-4,6′-pyrazolo[1,5-a]pyrimidin]-3′-yl]-2-(2-methylphenyl)pyridazin-3(2H)-one] | 90%
CCN1CCn2nc(-c3ccc(F)cc3)c(-c3ccc(=O)n(-c4ccccc4C)n3)c21 [Example 6, 6-[1-Ethyl-6-(4-fluorophenyl)-2,3-dihydro-1H-imidazo[1,2-b]pyrazol-7-yl]-2-(2-methylphenyl)-3(2H)-pyridazinone] | 80%
Cc1ccccc1-n1nc(-c2c(-c3ccc(F)cc3F)nn3cc(CN(C)C)cnc23)ccc1=O [Example 2, 6-{2-(2,4-Difluorophenyl)-6-[(dimethylamino)methyl]pyrazolo[1,5-a]pyrimidin-3-yl}-2-(2-methylphenyl)-3(2H)-pyridazinone] | 98%
Cc1ccccc1-n1nc(-c2c(-c3ccc(F)cc3)nn3c2NCC(C(=O)NC2CC2)C3)ccc1=O (stereo not shown) [Example 57, N-cyclopropyl-2-(4-fluorophenyl)-3-[1-(2-methylphenyl)-6-oxo-1,6-dihydropyridazin-3-yl]-4,5,6,7-tetrahydropyrazolo[1,5-a]pyrimidine-6-carboxamide] | 97%
Cc1ccccc1-n1nc(-c2c(-c3ccc(F)cc3F)nn3c2NCC(CNC(C)(C)C)C3)ccc1=O (stereo not shown) [Example 98, 6-{6-[(tert-Butylamino)methyl]-2-(2,4-difluorophenyl)-4,5,6,7-tetrahydropyrazolo[1,5-a]pyrimidin-3-yl}-2-(2-methylphenyl)pyridazin-3(2H)-one] | 86%
Cc1ccccc1-n1nc(-c2c(-c3ccc(F)cc3F)nn3c2NCC(CO)C3)ccc1=O (stereo not shown) [Example 37, 6-[2-(2,4-Difluorophenyl)-6-(hydroxymethyl)-4,5,6,7-tetrahydropyrazolo[1,5-a]pyrimidin-3-yl]-2-(2-methylphenyl)pyridazin-3(2H)-one] | 94%

tested on: adjuvant-induced arthritis rats; assay: Inhibition of hind paw swelling in adjuvant-induced arthritis rats; assay type: in vivo, Lewis rats; settings: Rattus norvegicus, po, 600 h, dose 0.3 mg/kg orally once a day from days 15 to 24, left hind paw volume on day 25, read-out: % inhibition of vehicle-treated rats
Description: Arthritis was induced by injection of 0.5 mg of Mycobacterium tuberculosis (Difco Laboratories, Detroit, Mich.) in 50 μL of liquid paraffin into the right hind footpad of female Lewis rats aged 7 weeks (day 0). Normal untreated rats were used as negative controls. Animals were randomized and grouped (n≧5) for drug treatment based on an increase of left hind paw volume and body weight on day 15. Test compounds were suspended in vehicle (0.5% methylcellulose) and orally administered once a day from days 15 to 24. The volume of the left hind paw was measured on day 25 by a water displacement method using a plethymometer for rats (MK-550; Muromachi Kikai Co., Ltd., Tokyo, Japan).

Structure (SMILES) | inhibition in vivo at 0.3 mg/kg
Cc1ccccc1-n1nc(-c2c(-c3ccc(F)cc3F)nn3c2NCC(CN(C)C)C3)ccc1=O (stereo not shown) [Example 1, 6-{2-(2,4-difluorophenyl)-6-[(dimethylamino)methyl]-4,5,6,7-tetrahydropyrazolo[1,5-a]pyrimidin-3-yl}-2-(2-methylphenyl)-3(2H)-pyridazinone] | 51.2%

same assay, conditions: Rattus norvegicus, po, 600 h, dose 0.5 mg/kg orally once a day from days 15 to 24, left hind paw volume on day 25, read-out: % inhibition of vehicle-treated rats

Structure (SMILES) | inhibition in vivo at 0.5 mg/kg
Cc1ccccc1-n1nc(-c2c(-c3ccc(F)cc3)nn3c2NC[C@@H](O)C3)ccc1=O [Example 100, 6-[(6R)-2-(4-Fluorophenyl)-6-hydroxy-4,5,6,7-tetrahydropyrazolo[1,5-a]pyrimidin-3-yl]-2-(2-methylphenyl)pyridazin-3(2H)-one] | 40.2%

same assay, conditions: Rattus norvegicus, po, 600 h, dose 1 mg/kg orally once a day from days 15 to 24, left hind paw volume on day 25, read-out: % inhibition of vehicle-treated rats

Structure (SMILES) | inhibition in vivo at 1 mg/kg
Cc1ccccc1-n1nc(-c2c(-c3ccc(F)cc3)nn3c2NCC(O)C3)ccc1=O (stereo not shown) [Example 18, 6-[2-(4-Fluorophenyl)-6-hydroxy-4,5,6,7-tetrahydropyrazolo[1,5-a]pyrimidin-3-yl]-2-(2-methylphenyl)-3(2H)-pyridazinone] | 46.1%
Cc1ccccc1-n1nc(-c2c(-c3ccc(F)cc3)nn3c2NCC(C)(C)C3)ccc1=O [Example 132, 6-[2-(4-Fluorophenyl)-6,6-dimethyl-4,5,6,7-teterahydropyrazolo[1,5-a]pyrimidin-3-yl]-2-(2-methylphenyl)pyridazin-3(2H)-one] | 60.4%
Cc1ccccc1-n1nc(-c2c(-c3ccc(F)cc3)nn3c2N[C@H](CO)CC3)ccc1=O [Example 123, 6-[(5S)-2-(4-fluorophenyl)-5-(hydroxymethyl)-4,5,6,7-tetrahydropyrazolo[1,5-a]pyrimidin-3-yl]-2-(2-methylphenyl)pyridazin-3(2H)-one] | 62.3%
Cc1ccccc1-n1nc(-c2c(-c3ccc(F)cc3)nn3c2NCC2(C3)OCCO2)ccc1=O [Example 86, 6-[2′-(4-Fluorophenyl)-4′,5′-dihydrospiro[1,3-dioxolane-2,6′-pyrazolo[1,5-a]pyrimidin]-3′-yl]-2-(2-methylphenyl)pyridazin-3(2H)-one] | 48.1%
Cc1ccccc1-n1nc(-c2c(-c3ccc(F)cc3)nn3c2NC(CO)CC3)ccc1=O (stereo in doubt) [Example 124, 6-[(5S)-2-(4-Fluorophenyl)-5-(hydroxymethyl)-4,5,6,7-tetrahydropyrazolo[1,5-a]pyrimidin-3-yl]-2-(2-methylphenyl)pyridazin-3(2H)-one] | 50.6%
Cc1ccccc1-n1nc(-c2c(-c3ccc(F)cc3)nn3c2NCC2(CCOCC2)C3)ccc1=O [Example 63, 6-[2′-(4-Fluorophenyl)-2,3,4′,5,5′,6-hexahydrospiro[pyran-4,6′-pyrazolo[1,5-a]pyrimidin]-3′-yl]-2-(2-methylphenyl)pyridazin-3(2H)-one] | 39.5%
Cc1ccccc1-n1nc(-c2c(-c3ccc(F)cc3)nn3c2NCC(CO)C3)ccc1=O (stereo not shown) [Example 3, 6-[2-(4-Fluorophenyl)-6-(hydroxymethyl)-4,5,6,7-tetrahydropyrazolo[1,5-a]pyrimidin-3-yl]-2-(2-methylphenyl)-3(2H)-pyridazinone] | 56.4%
Cc1ccccc1-n1nc(-c2c(-c3ccc(F)cc3F)nn3c2NCC(CO)C3)ccc1=O (stereo not shown) [Example 37, 6-[2-(2,4-Difluorophenyl)-6-(hydroxymethyl)-4,5,6,7-tetrahydropyrazolo[1,5-a]pyrimidin-3-yl]-2-(2-methylphenyl)pyridazin-3(2H)-one] | 63.6%
